Measured values reported in the NIST ThermoML archive (doi:10.1021/acs.jced.8b00554).

Assay: xn = mol fraction of the nth substance listed
Conditions: Liquid, Vibrating tube method

CCCCCCCCCC [decane] + CCCO
mass density [kg/m3]
Conditions	343.15 K	353.15 K
100 kPa, x2 = 0.1391	687.56	676.32
100 kPa, x2 = 0.1907	688.32	676.49
100 kPa, x2 = 0.3001	690.77	678.11
100 kPa, x2 = 0.4326	694.55	680.77
100 kPa, x2 = 0.6863	710.6	696.41
100 kPa, x2 = 0.8711	732.51	719.28
1000 kPa, x2 = 0.1391	–	678.16
1000 kPa, x2 = 0.1907	–	678.39
1000 kPa, x2 = 0.8711	–	721.12
1010 kPa, x2 = 0.1391	689.22	–
1010 kPa, x2 = 0.1907	690.02	–
1010 kPa, x2 = 0.3001	692.37	679.67
1010 kPa, x2 = 0.4326	696.46	–
1010 kPa, x2 = 0.6863	712.46	698.52
1010 kPa, x2 = 0.8711	734.14	–
1020 kPa, x2 = 0.4326	–	682.95
2000 kPa, x2 = 0.6863	713.55	–
2010 kPa, x2 = 0.1391	–	679.31
2010 kPa, x2 = 0.1907	691.1	–
2010 kPa, x2 = 0.3001	693.48	680.84
2010 kPa, x2 = 0.6863	–	699.68
2010 kPa, x2 = 0.8711	–	722.21
2020 kPa, x2 = 0.1391	690.3	–
2020 kPa, x2 = 0.1907	–	679.54
2020 kPa, x2 = 0.4326	697.54	684.1
2020 kPa, x2 = 0.8711	735.16	–
3000 kPa, x2 = 0.1907	–	680.66
3000 kPa, x2 = 0.3001	–	681.96
3010 kPa, x2 = 0.1391	691.36	–
3010 kPa, x2 = 0.1907	692.15	–
3010 kPa, x2 = 0.3001	694.52	–
3010 kPa, x2 = 0.6863	–	700.85
3010 kPa, x2 = 0.8711	736.2	–
3020 kPa, x2 = 0.1391	–	680.43
3020 kPa, x2 = 0.4326	698.61	685.26
3020 kPa, x2 = 0.6863	714.64	–
3020 kPa, x2 = 0.8711	–	723.32
4000 kPa, x2 = 0.1391	692.41	–
4000 kPa, x2 = 0.4326	–	686.44
4000 kPa, x2 = 0.6863	715.75	–
4000 kPa, x2 = 0.8711	737.27	–
4010 kPa, x2 = 0.1391	–	681.55
4010 kPa, x2 = 0.1907	–	681.83
4010 kPa, x2 = 0.3001	–	683.13
4010 kPa, x2 = 0.6863	–	702.05
4020 kPa, x2 = 0.1907	693.23	–
4020 kPa, x2 = 0.3001	695.6	–
4020 kPa, x2 = 0.4326	699.72	–
4020 kPa, x2 = 0.8711	–	724.45
5000 kPa, x2 = 0.4326	700.81	–
5000 kPa, x2 = 0.8711	–	725.63
5010 kPa, x2 = 0.1391	–	682.67
5010 kPa, x2 = 0.1907	–	682.92
5010 kPa, x2 = 0.3001	696.69	684.29
5010 kPa, x2 = 0.4326	–	687.63
5010 kPa, x2 = 0.6863	716.84	–
5020 kPa, x2 = 0.1391	693.45	–
5020 kPa, x2 = 0.1907	694.27	–
5020 kPa, x2 = 0.6863	–	703.25
5020 kPa, x2 = 0.8711	738.33	–
6000 kPa, x2 = 0.6863	–	704.42
6010 kPa, x2 = 0.1391	–	683.79
6010 kPa, x2 = 0.1907	695.3	684.03
6010 kPa, x2 = 0.4326	701.9	688.8
6010 kPa, x2 = 0.6863	717.93	–
6010 kPa, x2 = 0.8711	739.41	–
6020 kPa, x2 = 0.1391	694.49	–
6020 kPa, x2 = 0.3001	697.74	685.42
6020 kPa, x2 = 0.8711	–	726.78
7000 kPa, x2 = 0.4326	702.99	–
7000 kPa, x2 = 0.8711	740.46	–
7010 kPa, x2 = 0.1391	695.53	–
7010 kPa, x2 = 0.1907	696.35	–
7010 kPa, x2 = 0.3001	698.82	686.6
7010 kPa, x2 = 0.4326	–	690
7010 kPa, x2 = 0.6863	719.02	–
7020 kPa, x2 = 0.1391	–	684.92
7020 kPa, x2 = 0.1907	–	685.14
7020 kPa, x2 = 0.6863	–	705.63
7020 kPa, x2 = 0.8711	–	727.93
8000 kPa, x2 = 0.1907	697.42	–
8000 kPa, x2 = 0.3001	–	687.74
8000 kPa, x2 = 0.8711	741.52	–
8010 kPa, x2 = 0.1391	696.59	686.06
8010 kPa, x2 = 0.1907	–	686.32
8010 kPa, x2 = 0.4326	–	691.17
8010 kPa, x2 = 0.6863	720.12	706.82
8010 kPa, x2 = 0.8711	–	729.07
8020 kPa, x2 = 0.3001	699.88	–
8020 kPa, x2 = 0.4326	704.06	–
9000 kPa, x2 = 0.1907	698.46	–
9000 kPa, x2 = 0.6863	–	708.03
9010 kPa, x2 = 0.1391	697.61	–
9010 kPa, x2 = 0.3001	700.95	–
9010 kPa, x2 = 0.4326	–	692.36
9010 kPa, x2 = 0.8711	742.57	730.22
9020 kPa, x2 = 0.1391	–	687.14
9020 kPa, x2 = 0.1907	–	687.44
9020 kPa, x2 = 0.3001	–	688.92
9020 kPa, x2 = 0.4326	705.14	–
9020 kPa, x2 = 0.6863	721.21	–
10000 kPa, x2 = 0.4326	706.23	693.57
10000 kPa, x2 = 0.6863	–	709.2
10010 kPa, x2 = 0.1391	698.62	688.25
10010 kPa, x2 = 0.3001	702.02	–
10010 kPa, x2 = 0.6863	722.27	–
10010 kPa, x2 = 0.8711	743.61	–
10020 kPa, x2 = 0.1907	699.47	–
11010 kPa, x2 = 0.1391	699.66	–
11010 kPa, x2 = 0.1907	700.5	–
11010 kPa, x2 = 0.4326	707.27	–
11010 kPa, x2 = 0.8711	744.65	–
11020 kPa, x2 = 0.3001	703.07	–
11020 kPa, x2 = 0.6863	723.34	–
12000 kPa, x2 = 0.4326	708.34	–
12000 kPa, x2 = 0.8711	745.65	–
12010 kPa, x2 = 0.1907	701.55	–
12010 kPa, x2 = 0.3001	704.1	–
12020 kPa, x2 = 0.1391	700.67	–
12020 kPa, x2 = 0.6863	724.37	–
13000 kPa, x2 = 0.1391	701.67	–
13000 kPa, x2 = 0.6863	725.42	–
13000 kPa, x2 = 0.8711	746.64	–
13010 kPa, x2 = 0.3001	705.15	–
13010 kPa, x2 = 0.4326	709.37	–
13020 kPa, x2 = 0.1907	702.55	–
14000 kPa, x2 = 0.3001	706.16	–
14000 kPa, x2 = 0.4326	710.39	–
14000 kPa, x2 = 0.6863	726.44	–
14000 kPa, x2 = 0.8711	747.65	–
14010 kPa, x2 = 0.1391	702.65	–
14020 kPa, x2 = 0.1907	703.54	–
15000 kPa, x2 = 0.1391	703.58	–
15000 kPa, x2 = 0.1907	704.5	–
15000 kPa, x2 = 0.6863	727.44	–
15010 kPa, x2 = 0.4326	711.38	–
15010 kPa, x2 = 0.8711	748.62	–
15020 kPa, x2 = 0.3001	707.12	–
16000 kPa, x2 = 0.6863	728.43	–
16000 kPa, x2 = 0.8711	749.58	–
16010 kPa, x2 = 0.1391	704.52	–
16010 kPa, x2 = 0.1907	705.46	–
16010 kPa, x2 = 0.3001	708.12	–
16020 kPa, x2 = 0.4326	712.37	–
17000 kPa, x2 = 0.1907	706.43	–
17000 kPa, x2 = 0.3001	709.07	–
17000 kPa, x2 = 0.4326	713.3	–
17010 kPa, x2 = 0.1391	705.45	–
17010 kPa, x2 = 0.6863	729.39	–
17010 kPa, x2 = 0.8711	750.52	–
18000 kPa, x2 = 0.6863	730.34	–
18010 kPa, x2 = 0.1907	707.33	–
18010 kPa, x2 = 0.3001	709.98	–
18010 kPa, x2 = 0.4326	714.25	–
18010 kPa, x2 = 0.8711	751.45	–
18020 kPa, x2 = 0.1391	706.37	–
19010 kPa, x2 = 0.1391	707.22	–
19010 kPa, x2 = 0.3001	710.9	–
19010 kPa, x2 = 0.4326	715.15	–
19010 kPa, x2 = 0.6863	731.24	–
19010 kPa, x2 = 0.8711	752.35	–
19020 kPa, x2 = 0.1907	708.2	–
20000 kPa, x2 = 0.1391	708.05	–
20000 kPa, x2 = 0.1907	709.04	–
20000 kPa, x2 = 0.8711	753.23	–
20010 kPa, x2 = 0.4326	716.08	–
20010 kPa, x2 = 0.6863	732.18	–
20020 kPa, x2 = 0.3001	711.75	–
